In US12268666B2, “Spray-dried dispersions, formulations, and polymorphs of (S)-5-amino-3-(4-((5-fluoro-2-methoxybenzamido)methyl)phenyl)-1-(1,1,1-trifluoropropan-2-yl)-1H-pyrazole-4-carboxamide” (Loxo Oncology, Inc., priority 2018, dated 2025):
Read-outs that look alike come from different tables or passages of the source.

Legend:
[1] = Dog pharmacokinetics, crystalline compound in suspension (Example 15 Part A); format: in vivo, beagle dogs; details: for bioavailability / AUC(0-t) / Cmax: both sexes, beagle, dog, plasma, 30 mg/kg; for bioavailability: oral, AUC0-t oral vs AUC0-inf of 2-mg/kg IV dose, read-out: F (bioavailability); for AUC(0-t) / Cmax: po, suspension in 0.5% HPMC
Method: Crystalline compound of Formula I is prepared as a suspension in 0.5% hydroxypropyl methylcellulose (IPMC) at 6 mg/mL for administration of 30 mg/kg; no correction factor is used for dose formulation. Three male and five female beagle dogs are administered a single PO gavage dose of 30 mg/kg compound of Formula I formulated as a suspension in 0.5% HPMC. All animals are administered the suspension of the crystalline compound of Formula I in fed and fasted states, following a 7-day washout period between dosing periods/feeding conditions. For both feeding conditions, access to food is removed at least 12 hours prior to dose administration. In Crossover #1, 6 dogs are fed a mix of canned and dry food approximately 45 minutes prior to dose administration (Group 1), and 2 dogs are administered the compound of Formula I in a fasted state and fed 4 hours after dosing (Group 2). In Crossover #2, the 2 dogs that are administered the compound of Formula I in the fasted state in Crossover #1 are fed a mix of canned and dry food approximately 45 minutes prior to dose administration (Group 3), and 5 of the dogs that are administered the compound of Formula I in the fed state in Crossover #1 are administered the compound of Formula I in a fasted state and fed 4 hours after dosing (Group 4) (Table 26). The same 3 males and 3 females are assigned to Groups 1 and 4 (with the exception of one female, which is assigned to Group 1 but is not included in Group 4), and the same 2 females are assigned to Groups 2 and 3.
Blood samples are collected via the jugular vein following PO doses at 0 (pre-dose), 0.5, 1, 2, 4, 8 24 and 48 hours into EDTAblood collection tubes. Samples are centrifuged at 3500 rpm for 10 minutes at 4-8° C. and the plasma fraction is stored frozen at −70° C. prior to bioanalytical analysis. Concentrations of the compound of Formula I in dog plasma are determined by LC-MS/MS following protein precipitation with acetonitrile. Non-compartmental pharmacokinetic parameters of the compound of Formula I are calculated by conventional methods using individual plasma concentration profiles over time and Microsoft Excel.

[2] = In vivo dog bioavailability and pharmacokinetic study, reference vs SDD; details: beagle, plasma, po, 30 mg/kg, dogs, suspension in 0.5% HPMC in water, mean ± SD
Method: Dogs are fasted overnight prior to dosing (fasted) or fed canned food 45 min prior to dosing (fed). Samples for pharmacokinetic (PK) analysis are collected at 30 min, 1, 2, 4, 8, 24, and 48 hours post-dose. Blood samples are processed to plasma and stored frozen at −70° C. until analysis of the compound of Formula I concentrations. The concentration of the compound of Formula I in the plasma is determined by reverse phase HPLC with mass spectrometry detection. The compound of Formula I area under the curve is calculated by the trapezoidal method over the time course of the study. ANOVA with Dunett correction for multiple comparisons is used to determine statistical significant of differences from the reference formulation. The values of AUC and Cmax are reported as averages±standard deviation for each group of dogs in Table 24.

[3] = beagle dogs, single PO 30 mg/kg
[4] = beagle dogs, fasted, single PO 30 mg/kg
[5] = beagle dogs, fed, single PO 30 mg/kg

SMILES	AUC0-t fold change (fed/fasted ratio) [1, 3]	Cmax fold change (fed/fasted ratio) [1, 3]	bioavailability ([1]; fasted) [%]	bioavailability ([1]; fed) [%]	AUC(0-t) [1, 4] [ng·h/mL]	Cmax [1, 4] [ng/mL]	AUC(0-t) [1, 5] [ng·h/mL]	Cmax [1, 5] [ng/mL]	AUC ([2]; fasted) [ng·h/mL]	Cmax ([2]; fasted) [ng/mL]	AUC ([2]; fed) [ng·h/mL]	Cmax ([2]; fed) [ng/mL]
COc1ccc(F)cc1C(=O)NCc1ccc(-c2nn([C@@H](C)C(F)(F)F)c(N)c2C(N)=O)cc1 [Crystalline compound of Formula I, (S)-5-amino-3-(4-((5-fluoro-2-methoxybenzamido)methyl)phenyl)-1-(1,1,1-trifluoropropan-2-yl)-1H-pyrazole-4-carboxamide]	7.5 ± 3.3	4.8 ± 2.1	5.09	29.7	8180 ± 3680	597 ± 197	47800 ± 21300	2370 ± 679	–	–	–	–
COc1ccc(F)cc1C(=O)NCc1ccc(-c2nn([C@@H](C)C(F)(F)F)c(N)c2C(N)=O)cc1 [Reference, (S)-5-amino-3-(4-((5-fluoro-2-methoxybenzamido)methyl)phenyl)-1-(1,1,1-trifluoropropan-2-yl)-1H-pyrazole-4-carboxamide]	–	–	–	–	–	–	–	–	11300	597	47800	2370
